Assay results: the NIST ThermoML archive (doi:10.1021/je049895b)
± gives the expanded uncertainty stated by the source.

Assay: xn = mol fraction of the nth substance listed
Settings: 101.33 kPa, Liquid; for viscosity: Capillary tube (Ostwald / Ubbelohde) method

## C1CCCC1 [cyclopentane] + CCOC(=O)OCC
293.15 K, x2 = 0
  viscosity: 0.438 ± 0.02 mPa·s
  mass density: 744.43 ± 0.51 kg/m3
  speed of sound: 1232 ± 2 m/s
293.15 K, x2 = 0.0491
  viscosity: 0.44 ± 0.02 mPa·s
  mass density: 757.21 ± 0.5 kg/m3
  speed of sound: 1219 ± 2 m/s
293.15 K, x2 = 0.0999
  viscosity: 0.445 ± 0.02 mPa·s
  mass density: 770.43 ± 0.49 kg/m3
  speed of sound: 1209 ± 2 m/s
293.15 K, x2 = 0.1898
  viscosity: 0.462 ± 0.02 mPa·s
  mass density: 793.45 ± 0.47 kg/m3
  speed of sound: 1196 ± 2 m/s
293.15 K, x2 = 0.2872
  viscosity: 0.486 ± 0.02 mPa·s
  mass density: 817.88 ± 0.45 kg/m3
  speed of sound: 1186 ± 2 m/s
293.15 K, x2 = 0.3894
  viscosity: 0.518 ± 0.02 mPa·s
  mass density: 842.77 ± 0.43 kg/m3
  speed of sound: 1180 ± 2 m/s
293.15 K, x2 = 0.5009
  viscosity: 0.559 ± 0.02 mPa·s
  mass density: 868.92 ± 0.41 kg/m3
  speed of sound: 1178 ± 2 m/s
293.15 K, x2 = 0.6023
  viscosity: 0.601 ± 0.02 mPa·s
  mass density: 891.92 ± 0.38 kg/m3
  speed of sound: 1179 ± 2 m/s
293.15 K, x2 = 0.7021
  viscosity: 0.646 ± 0.02 mPa·s
  mass density: 913.9 ± 0.35 kg/m3
  speed of sound: 1181 ± 2 m/s
293.15 K, x2 = 0.8053
  viscosity: 0.696 ± 0.021 mPa·s
  mass density: 935.69 ± 0.32 kg/m3
  speed of sound: 1186 ± 2 m/s
293.15 K, x2 = 0.9032
  viscosity: 0.748 ± 0.021 mPa·s
  mass density: 955.62 ± 0.3 kg/m3
  speed of sound: 1191 ± 2 m/s
293.15 K, x2 = 0.952
  viscosity: 0.778 ± 0.021 mPa·s
  mass density: 965.36 ± 0.28 kg/m3
  speed of sound: 1194 ± 2 m/s
298.15 K, x2 = 0
  viscosity: 0.415 ± 0.02 mPa·s
  mass density: 739.47 ± 0.51 kg/m3
  speed of sound: 1206 ± 2 m/s
298.15 K, x2 = 0.0491
  viscosity: 0.416 ± 0.02 mPa·s
  mass density: 752.18 ± 0.5 kg/m3
  speed of sound: 1194 ± 2 m/s
298.15 K, x2 = 0.0999
  viscosity: 0.421 ± 0.02 mPa·s
  mass density: 765.34 ± 0.49 kg/m3
  speed of sound: 1184 ± 2 m/s
298.15 K, x2 = 0.1898
  viscosity: 0.437 ± 0.02 mPa·s
  mass density: 788.24 ± 0.47 kg/m3
  speed of sound: 1172 ± 2 m/s
298.15 K, x2 = 0.2872
  viscosity: 0.459 ± 0.02 mPa·s
  mass density: 812.58 ± 0.45 kg/m3
  speed of sound: 1163 ± 2 m/s
298.15 K, x2 = 0.3894
  viscosity: 0.489 ± 0.02 mPa·s
  mass density: 837.37 ± 0.43 kg/m3
  speed of sound: 1157 ± 2 m/s
298.15 K, x2 = 0.5009
  viscosity: 0.527 ± 0.02 mPa·s
  mass density: 863.47 ± 0.41 kg/m3
  speed of sound: 1156 ± 2 m/s
298.15 K, x2 = 0.6023
  viscosity: 0.564 ± 0.02 mPa·s
  mass density: 886.43 ± 0.38 kg/m3
  speed of sound: 1157 ± 2 m/s
298.15 K, x2 = 0.7021
  viscosity: 0.606 ± 0.02 mPa·s
  mass density: 908.38 ± 0.35 kg/m3
  speed of sound: 1160 ± 2 m/s
298.15 K, x2 = 0.8053
  viscosity: 0.654 ± 0.02 mPa·s
  mass density: 930.14 ± 0.32 kg/m3
  speed of sound: 1165 ± 2 m/s
298.15 K, x2 = 0.9032
  viscosity: 0.699 ± 0.021 mPa·s
  mass density: 950.04 ± 0.3 kg/m3
  speed of sound: 1170 ± 2 m/s
298.15 K, x2 = 0.952
  viscosity: 0.726 ± 0.021 mPa·s
  mass density: 959.78 ± 0.28 kg/m3
  speed of sound: 1174 ± 2 m/s
303.15 K, x2 = 0
  viscosity: 0.394 ± 0.02 mPa·s
  mass density: 734.47 ± 0.51 kg/m3
  speed of sound: 1180 ± 2 m/s
303.15 K, x2 = 0.0491
  viscosity: 0.396 ± 0.02 mPa·s
  mass density: 747.11 ± 0.5 kg/m3
  speed of sound: 1169 ± 2 m/s
303.15 K, x2 = 0.0999
  viscosity: 0.399 ± 0.02 mPa·s
  mass density: 760.19 ± 0.49 kg/m3
  speed of sound: 1159 ± 2 m/s
303.15 K, x2 = 0.1898
  viscosity: 0.414 ± 0.02 mPa·s
  mass density: 782.99 ± 0.47 kg/m3
  speed of sound: 1147 ± 2 m/s
303.15 K, x2 = 0.2872
  viscosity: 0.435 ± 0.02 mPa·s
  mass density: 807.23 ± 0.45 kg/m3
  speed of sound: 1139 ± 2 m/s
303.15 K, x2 = 0.3894
  viscosity: 0.461 ± 0.02 mPa·s
  mass density: 831.95 ± 0.43 kg/m3
  speed of sound: 1134 ± 2 m/s
303.15 K, x2 = 0.5009
  viscosity: 0.496 ± 0.02 mPa·s
  mass density: 857.97 ± 0.41 kg/m3
  speed of sound: 1133 ± 2 m/s
303.15 K, x2 = 0.6023
  viscosity: 0.532 ± 0.02 mPa·s
  mass density: 880.91 ± 0.38 kg/m3
  speed of sound: 1135 ± 2 m/s
303.15 K, x2 = 0.7021
  viscosity: 0.57 ± 0.02 mPa·s
  mass density: 902.82 ± 0.35 kg/m3
  speed of sound: 1138 ± 2 m/s
303.15 K, x2 = 0.8053
  viscosity: 0.615 ± 0.02 mPa·s
  mass density: 924.56 ± 0.33 kg/m3
  speed of sound: 1144 ± 2 m/s
303.15 K, x2 = 0.9032
  viscosity: 0.655 ± 0.02 mPa·s
  mass density: 944.44 ± 0.3 kg/m3
  speed of sound: 1150 ± 2 m/s
303.15 K, x2 = 0.952
  viscosity: 0.68 ± 0.02 mPa·s
  mass density: 954.16 ± 0.29 kg/m3
  speed of sound: 1153 ± 2 m/s
308.15 K, x2 = 0
  viscosity: 0.374 ± 0.02 mPa·s
  mass density: 729.42 ± 0.51 kg/m3
  speed of sound: 1154 ± 2 m/s
308.15 K, x2 = 0.0491
  viscosity: 0.375 ± 0.02 mPa·s
  mass density: 741.99 ± 0.5 kg/m3
  speed of sound: 1144 ± 2 m/s
308.15 K, x2 = 0.0999
  viscosity: 0.379 ± 0.02 mPa·s
  mass density: 755 ± 0.49 kg/m3
  speed of sound: 1134 ± 2 m/s
308.15 K, x2 = 0.1898
  viscosity: 0.393 ± 0.02 mPa·s
  mass density: 777.7 ± 0.47 kg/m3
  speed of sound: 1123 ± 2 m/s
308.15 K, x2 = 0.2872
  viscosity: 0.412 ± 0.02 mPa·s
  mass density: 801.84 ± 0.45 kg/m3
  speed of sound: 1115 ± 2 m/s
308.15 K, x2 = 0.3894
  viscosity: 0.436 ± 0.02 mPa·s
  mass density: 826.49 ± 0.43 kg/m3
  speed of sound: 1112 ± 2 m/s
308.15 K, x2 = 0.5009
  viscosity: 0.47 ± 0.02 mPa·s
  mass density: 852.45 ± 0.41 kg/m3
  speed of sound: 1111 ± 2 m/s
308.15 K, x2 = 0.6023
  viscosity: 0.502 ± 0.02 mPa·s
  mass density: 875.35 ± 0.38 kg/m3
  speed of sound: 1113 ± 2 m/s
308.15 K, x2 = 0.7021
  viscosity: 0.537 ± 0.02 mPa·s
  mass density: 897.23 ± 0.36 kg/m3
  speed of sound: 1117 ± 2 m/s
308.15 K, x2 = 0.8053
  viscosity: 0.578 ± 0.02 mPa·s
  mass density: 918.94 ± 0.33 kg/m3
  speed of sound: 1123 ± 2 m/s
308.15 K, x2 = 0.9032
  viscosity: 0.616 ± 0.02 mPa·s
  mass density: 938.8 ± 0.3 kg/m3
  speed of sound: 1129 ± 2 m/s
308.15 K, x2 = 0.952
  viscosity: 0.638 ± 0.02 mPa·s
  mass density: 948.52 ± 0.29 kg/m3
  speed of sound: 1133 ± 2 m/s
313.15 K, x2 = 0
  viscosity: 0.355 ± 0.02 mPa·s
  mass density: 724.32 ± 0.51 kg/m3
  speed of sound: 1129 ± 2 m/s
313.15 K, x2 = 0.0491
  viscosity: 0.356 ± 0.02 mPa·s
  mass density: 736.82 ± 0.5 kg/m3
  speed of sound: 1119 ± 2 m/s
313.15 K, x2 = 0.0999
  viscosity: 0.36 ± 0.02 mPa·s
  mass density: 749.76 ± 0.49 kg/m3
  speed of sound: 1110 ± 2 m/s
313.15 K, x2 = 0.1898
  viscosity: 0.373 ± 0.02 mPa·s
  mass density: 772.35 ± 0.47 kg/m3
  speed of sound: 1099 ± 2 m/s
313.15 K, x2 = 0.2872
  viscosity: 0.391 ± 0.02 mPa·s
  mass density: 796.39 ± 0.46 kg/m3
  speed of sound: 1092 ± 2 m/s
313.15 K, x2 = 0.3894
  viscosity: 0.414 ± 0.02 mPa·s
  mass density: 820.95 ± 0.44 kg/m3
  speed of sound: 1089 ± 2 m/s
313.15 K, x2 = 0.5009
  viscosity: 0.444 ± 0.02 mPa·s
  mass density: 846.9 ± 0.42 kg/m3
  speed of sound: 1089 ± 2 m/s
313.15 K, x2 = 0.6023
  viscosity: 0.475 ± 0.02 mPa·s
  mass density: 869.75 ± 0.39 kg/m3
  speed of sound: 1091 ± 2 m/s
313.15 K, x2 = 0.7021
  viscosity: 0.508 ± 0.02 mPa·s
  mass density: 891.61 ± 0.36 kg/m3
  speed of sound: 1096 ± 2 m/s
313.15 K, x2 = 0.8053
  viscosity: 0.545 ± 0.02 mPa·s
  mass density: 913.29 ± 0.33 kg/m3
  speed of sound: 1102 ± 2 m/s
313.15 K, x2 = 0.9032
  viscosity: 0.58 ± 0.02 mPa·s
  mass density: 933.14 ± 0.3 kg/m3
  speed of sound: 1109 ± 2 m/s
313.15 K, x2 = 0.952
  viscosity: 0.6 ± 0.02 mPa·s
  mass density: 942.85 ± 0.29 kg/m3
  speed of sound: 1112 ± 2 m/s
